The text below walks through data of US20100168135A1, “Method of Inducing Cleavage of Amyloid Precursor Protein to Form a Novel Fragment” (priority 2008, published 2010).

Assay [1] has as its system N2a cells. The assay is described as follows: Aβ production by N2a cultured cells, ELISA of tissue culture medium. In kind it is cell-based, murine. The settings on record: 24 hours treatment, vs control. The method, then: N2a is a murine neuroblastoma cell line that is known to produce amyloid peptides Aβ1-40 and Aβ1-42 in amounts measurable by ELISA assays. These forms of Aβ have been correlated with the pathology in AD brain and Aβ1-42 in particular is postulated to have the ability to block α7 nicotinic receptors and to produce direct neurotoxic effects. N2a cells were treated for 24 hours with ST101 added to the tissue culture medium. Tissue culture medium was collected and analyzed by ELISA for the presence of Aβ.
FIGS. 1A and 1B are bar graphs that depict the effect of the compound ST101 on Aβ production by N2a cells. FIG. 1A is a bar graph that depicts the Aβ concentration in the cell culture medium as a function of ST101 concentration compared to control. FIG. 1B a bar graph that depicts the ratio of Aβ1-42 to Aβ1-40 as a function of ST101 concentration compared to control.
(In general: In an ELISA, binding on a coated surface is turned into a signal by an enzyme label.)

Assay [2] relates to 3xTg-AD mice. The assay is described as follows: Morris water maze in 3xTg-AD mice. Type of assay: in vivo, mouse. On the procedure: (§1) 3xTg-AD mice of approximately one year of age were treated for 2 months with ST101. An average dose of 5 mg/kg/day was administered in drinking water (calculated dose, based on mean water consumption). Behavioral effects were tested by assessing performance on the Morris Water Maze. Biochemical effects were examined by measuring brain content of Aβ and APP by ELISA and Western Blot.
Behavioral Effects: Performance of 3xTg-AD Mice in the Morris Water Maze (MWM), adapted from Roozendaal et al., Proc. Natl. Acad. Sci. U.S.A. 100: 1328-1333 (2003).
The MWM tests both spatial memory (i.e. hippocampus dependent) and cued learning (i.e. non-hippocampal) in rodents. The maze is a circular tank filled with opaque water. Mice are placed in the water and must swim to find and escape onto a platform submerged 1.5 cm beneath the surface of the water. The time (in seconds) required to find the platform is recorded. Animals rely on visual cues in the room containing the tank in order to find the platform on successive challenges. Training was conducted daily for seven consecutive days.
Retention of training was assessed twice, 24 and 72 hours after the final training trial. Animals were subjected to a 60-second free swim in the tank with the platform removed. Parameters measured included (1) latency: time required to reach the former platform location and (2) crosses: the number of times the animal swam across the former platform location.

The test system of assay [3] is APP and C-terminal fragments in the brains of 3xTg-AD mice. The assay is described as follows: Western blot of brain extracts with antibody CT20, 2-month treatment (Examples 4 and 5). In kind it is in vivo, mouse. The settings on record: antibody CT20, brains of 3xTg-AD mice, 5 mg/kg/day for 2 months. The method, then:
as §1
To attempt to determine at what part in the Aβ processing/release pathway ST101 may be active, a series of Western blot analyses of brain extracts from the same mice were conducted. These Westerns blots examined intact APP as well as products of its post-translational processing and subsequent degradation.
FIG. 4 is a Western blot that depicts APP C-terminal fragments detected by antibody CT20 in the brains of ST101-treated (S) 3xTg-AD mice, relative to untreated (C) 3xTg mice-AD.
FIG. 5 is a Western blot that depicts APP and degradation fragments detected by antibody CT20 in the brains of ST101-treated (S) 3xTg-AD mice, relative to untreated (C) 3xTg-AD mice. “CT20” stands for full length APP species, and “Actin” stands for anti-beta-actin antibody as a protein loading control.
For orientation: In western blotting, separated proteins are transferred to a membrane and probed.

In assay [4] the test system is APP C-terminal fragments in the brains of 3xTg-AD mice. The assay is described as follows: Western blot of brains with antibody CT20, 10-month treatment (Example 7). Conditions: antibody CT20, 3xTg-AD mice, 5 or 1 or 0.1 mg/kg/day for 10 months; in some samples. In kind it is in vivo, mouse. On the procedure: 3xTg-AD mice of approximately 3 months of age were treated for 10 months with ST101. An average dose of 5 or 1 or 0.1 mg/kg/day was administered in drinking water (calculated dose, based on mean water consumption).
FIGS. 7A-C are Western blots that depict APP C-terminal fragments detected by antibody CT20 in the brains of ST101-treated (S) 3xTg-AD mice, relative to untreated (C) 3xTg-AD mice.

Assay [5] has the same test system. The assay is described as follows: Western blot of brains with antibody 1565-1, 2.5-month treatment (Example 8). In kind it is in vivo, mouse. The settings on record: antibody 1565-1, 3xTg-AD mice, 5 mg/kg/day for 2.5 months. On the procedure: 3xTg-AD mice of approximately 12 months of age were treated for 2.5 months with ST101. An average dose of 5 mg/kg/day was administered in drinking water (calculated dose, based on mean water consumption).
FIG. 8 is a Western blot that depicts C-terminal fragments detected by antibody 1565-1 (Epitomics Inc.) in the brains of ST101-treated (S) 3xTg-AD mice, relative to untreated (C) 3xTg mice-AD.

The test system of assay [6] is acetylcholine (ACh). The assay is described as follows: Nicotine-stimulated release of acetylcholine.
Assay [7] relates to extracellular ACh and dopamine. The assay is described as follows: Extracellular ACh and dopamine concentrations in cerebral cortex and hippocampus. Type of assay: in vivo.
The subject of assay [8] is rodent models of learning and memory. The settings on record: cited from earlier work.
Assay [9] relates to Senescence Accelerated Mouse 8 (SAMP8). The settings on record: cited from earlier work.
Setting [10] is: 5 mg/kg/day for 2 months, at both 24 and 72 hours after training.

Take `O=C1N=C2C=CC=CN2C12Cc1ccccc1C2` [ST101, spiro(imidazo[1,2-a]pyridin-2(3H)-one-3,2′-indan)]: in assay [1], the “Aβ1-40 in cell culture medium” value was “without major effects” and the “Aβ1-42 in cell culture medium” value is given as “significantly reduced”. For the same compound, in assay [2] (setting [10]), the “crosses during retention testing” value is listed as “increases in crosses” and the “latency during retention testing” value is reported as “reductions in latency”. Moreover, in assay [2] (5 mg/kg/day in drinking water for 2 months, vs controls), the “latency on successive days of the training” value is given as “greater reductions in latency”. Moreover, in assay [3] (vs untreated), the “C83 C-terminal APP fragment” value is reported as “substantial decrease”; the “C99 C-terminal APP fragment” value was “substantial decrease”; the “major APP degradation intermediate (~50 kDa)” value is recorded as “disappearance or significant reduction”; the “novel, longer C-terminal fragment of about 17 kDa” value is “appearance”. For the same compound, the “full-length APP species (band shifts)” value in assay [3] (some full-length species) is recorded as “slightly lowered molecular weight”. In [4], the “major APP degradation intermediate (~50 kDa)” value is given as “disappearance or significant reduction” and the “novel, longer C-terminal fragment of about 17 kDa” value is “appearance”. For the same compound, the “longer C-terminal fragment of about 17 kDa” value in [5] is on record as “not observed”. Further, in assay [5] (vs untreated), the “APP C99 fragment” value is recorded as “disappearance or significant reduction”. In addition, in assay [6], the “nicotine-stimulated release of acetylcholine (ACh)” value is on record as “potentiates”. In [7] (cerebral cortex), the “extracellular ACh concentrations” value is “increases”. In addition, in [7] (hippocampus), the “extracellular concentrations of ACh” value was “increases” and the “extracellular concentrations of dopamine” value was “increases”. The “memory deficits induced by chemical amnesic agents” value in assay [8] (methamphetamine, MK-801, scopolamine) is listed as “attenuates”. Besides, the age-impaired memory result in assay [8] (rodent models) is “significantly improves”. Also, the “accumulation of Aβ-like deposits” value in [9] (brain tissue) was “decreased”. In assay [9], the “learning and memory functions” value is reported as “improvement”.
